Data on ten compounds can be found in ChEMBL document CHEMBL1201862, “PubChem BioAssay data set” (2004).

Assay in all cases: NCI anticancer screen, dose series, 48 h
In experiment [1] the test system is BT-549.
In experiment [2] the test system is CAKI-1.
Experiment [3] concerns DU-145.
The test system of experiment [4] is HT-29.
Experiment [5] deals with MDA-MB-231.
The subject of experiment [6] is Malme-3M.
Experiment [7] deals with NCI-H23.
Experiment [8] has as its system NCI-H460.
Experiment [9] deals with NCI/ADR-RES.
In experiment [10] the test system is OVCAR-3.
The subject of experiment [11] is SF-268.
In experiment [12] the test system is SF-295.
Experiment [13] relates to SK-MEL-28.
Experiment [14] has as its system SK-MEL-2.
The subject of experiment [15] is SK-MEL-5.
For experiment [16], the system named is SNB-75.
The test system of experiment [17] is TK-10.
Experiment [18] concerns UACC-62.
The subject of experiment [19] is OVCAR-4.
The subject of experiment [20] is SR.

Several values for one entry are separate records, joined by “and”; a condition that tells them apart may be missing. Equal entries are not always repeated.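 The compound was tested at five concentrations on cells cultured in 96-well plates, with a 48-hour exposure period. GI50 is the concentration that inhibits growth by half.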 Activity calls are given as the source filed them. No stated cut-off is given here; in the data, active = GI50 up to about 1.1 µM and inactive = higher. Where only a bound is given, the exact number is not on record here.

Take `N#C[C@H](C(=O)c1ccccc1F)c1nc2ccccc2s1`: the GI50 in experiment [1] was 46.6 µM (inactive); in experiment [2] it was 32.5 µM (inactive); in experiment [3], 42.6 µM (inactive); in experiment [4], 28.1 µM (inactive); in [5] it was 35.8 µM (inactive); in [6], 10.4 µM (inactive). In addition, the GI50 is 46.3 µM (inactive) in experiment [7]; 28.9 µM (inactive) in [8]; 26.9 µM (inactive) in experiment [9]; 18.5 µM (inactive) in [10]; 26.9 µM (inactive) in experiment [11]; 16.1 µM (inactive) in [12]. Also, the GI50 is 36.5 µM (inactive) in [13]; 16.6 µM (inactive) in [14]; 26.9 µM (inactive) in [15]; 14.8 µM (inactive) in experiment [16]; > 100 µM (inactive) in experiment [17]; 50.8 µM (inactive) in experiment [18].
`O=C1/C(=C/c2ccc(O)c(CN3CCCCC3)c2)CCC/C1=C\c1ccc(O)c(CN2CCCCC2)c1`: the GI50 in experiment [1] is 10.4 µM (inactive); in experiment [2] it was 18.8 µM (inactive); in experiment [3], 4.4 µM (inactive); in experiment [4], 1.51 µM (inactive); in experiment [5] it was 5.69 µM (inactive); in experiment [6] it was 13.6 µM (inactive). For the same compound, the GI50 is 5.52 µM (inactive) in experiment [7]; 3.05 µM (inactive) in experiment [8]; 2.89 µM (inactive) in experiment [9]; 5.12 µM (inactive) in experiment [10]; 6.81 µM (inactive) in experiment [19]; 3.52 µM (inactive) in experiment [11]. In addition, the GI50 is 3.25 µM (inactive) in experiment [12]; 13.3 µM (inactive) in experiment [13]; 22.1 µM (inactive) in experiment [14]; 14 µM (inactive) in experiment [15]; 2.27 µM (inactive) in experiment [16]; 6.17 µM (inactive) in experiment [17]. Also, the GI50 in experiment [18] was 16 µM (inactive).
In the case of `CC12CC3OC(=O)C1COC14OC5(C2C1=O)C(O)(CCC1C4CC(O)C2(O)CC=CC(=O)C12C)C(=O)OC35C` (centres undefined), the GI50 in experiment [1], in experiment [2], in experiment [3], in [4], in experiment [5] and in experiment [6] was > 100 µM (inactive) throughout. Also, the GI50 in experiment [7], in experiment [8], in [9], in experiment [10], in experiment [19] and in [11] was > 100 µM (inactive) each time. In addition, the GI50 in experiment [12], in [13], in [14], in experiment [15], in [16] and in [17] was > 100 µM (inactive) throughout. Also, the GI50 in experiment [18] was > 100 µM (inactive).
In the case of `COc1ccc(/N=C2\C(=N/c3ccc(OC)cc3)N(c3ccc(N(C)C)cc3)C(=S)N2c2ccc(OC)cc2)cc1`, the GI50 in experiment [1], in experiment [3], in [4], in experiment [5], in experiment [6] and in [7] was > 100 µM (inactive) throughout. Besides, the GI50 in [8] is 10.9 µM (inactive); in [9], > 100 µM (inactive); in [10], > 100 µM (inactive); in experiment [19], > 100 µM (inactive); in experiment [11], > 100 µM (inactive); in experiment [12] it was 0.0518 µM (active). Further, the GI50 in experiment [13], in experiment [14], in experiment [15], in [17] and in experiment [18] was > 100 µM (inactive) each time.
For the compound `COc1ccc(OC)c(/C=C/[N+](=O)[O-])c1`, the GI50 in [1] is 3.67 µM (inactive); in experiment [2], 2.85 µM (inactive) and 2.45 µM (inactive); in [3] it was 3.33 µM (inactive) and 3.03 µM (inactive); in [4], 3.47 µM (inactive) and 2.49 µM (inactive); in [5] it was 1.87 µM (inactive); in [7], 4.02 µM (inactive) and 2.41 µM (inactive). Moreover, the GI50 in experiment [8] was 3.24 µM (inactive) and 5.48 µM (inactive); in [9], 2.96 µM (inactive); in experiment [10], 2.14 µM (inactive) and 1.75 µM (inactive); in experiment [19], 4.31 µM (inactive) and 2.8 µM (inactive); in [11] it was 3.01 µM (inactive) and 4.54 µM (inactive); in [12] it was 5.24 µM (inactive) and 3.46 µM (inactive). Also, the GI50 was 2.01 µM (inactive) and 3.48 µM (inactive) in [13]; 2.41 µM (inactive) and 4.62 µM (inactive) in experiment [14]; 3.29 µM (inactive) and 2.33 µM (inactive) in experiment [15]; 6.64 µM (inactive) and 4.62 µM (inactive) in experiment [16].
In the case of `Brc1cccc(Nc2ncnc3sc4c(c23)CCC2(C4)OCCO2)c1`, the GI50 in experiment [1] is 27.5 µM (inactive); in [2] it was 10.5 µM (inactive); in experiment [3], 7.28 µM (inactive); in [4] it was 45.4 µM (inactive); in [5], 87.1 µM (inactive); in [6], 39.2 µM (inactive). The GI50 in experiment [7] is 29.8 µM (inactive); in experiment [8], 33.3 µM (inactive); in experiment [9], 22.3 µM (inactive); in experiment [10], 28.4 µM (inactive); in experiment [19] it was 20.1 µM (inactive); in experiment [11], 27.6 µM (inactive). Further, the GI50 is 32.5 µM (inactive) in [12]; 33 µM (inactive) in experiment [14]; 15.8 µM (inactive) in [15]; 23.1 µM (inactive) in [16]; 7.73 µM (inactive) in [17]; 22.9 µM (inactive) in [18].
As for `CC(/C=C/c1ccccc1)=N\NC(N)=S`, the GI50 was 29.9 µM (inactive) in experiment [1]; 35.7 µM (inactive) in [2]; 34.4 µM (inactive) in [3]; 56.6 µM (inactive) in experiment [4]; 34.6 µM (inactive) in experiment [5]; 45.7 µM (inactive) in experiment [6]. Further, the GI50 in experiment [7] was 74 µM (inactive); in [8], 61.2 µM (inactive); in [9], 27.9 µM (inactive); in experiment [10] it was 24.5 µM (inactive); in [11], 61.7 µM (inactive); in experiment [12], 21.5 µM (inactive). The GI50 was > 100 µM (inactive) in [13], 38.5 µM (inactive) in experiment [15], 23.2 µM (inactive) in experiment [20] and 39.4 µM (inactive) in [17].
Regarding `CC[C@]12C=CCN3CC[C@@]4(c5cc(Br)c(OC)cc5N(C)[C@H]4[C@@](O)(C(=O)NN)[C@@H]1O)[C@@H]32`, the GI50 in experiment [1] is 36.1 µM (inactive); in [2], > 100 µM (inactive); in experiment [3], > 100 µM (inactive); in [4] it was > 100 µM (inactive); in [5], 70.3 µM (inactive); in [6], 69.8 µM (inactive). Also, the GI50 is 68.1 µM (inactive) in experiment [7]; > 100 µM (inactive) in experiment [8]; > 100 µM (inactive) in experiment [9]; 58.9 µM (inactive) in [10]; 96.6 µM (inactive) in experiment [19]; 56.1 µM (inactive) in experiment [11]. For the same compound, the GI50 is 65.5 µM (inactive) in experiment [12]; 67.3 µM (inactive) in experiment [13]; 29.8 µM (inactive) in experiment [14]; 49.5 µM (inactive) in experiment [15]; 18.2 µM (inactive) in [16]; 59.4 µM (inactive) in experiment [17]. For the same compound, the GI50 in [18] is 40.7 µM (inactive).
Take `C[C@]12CC[C@H]3[C@@H](CC=C4C[C@@H](O)CC[C@@]43C)[C@@H]1C[C@H](N1CCOCC1)[C@@H]2O`: the GI50 in [1] is 27.9 µM (inactive); in [2] it was > 100 µM (inactive); in experiment [3], > 100 µM (inactive); in [4], 6.34 µM (inactive); in [5], 54.3 µM (inactive); in experiment [6], > 100 µM (inactive). The GI50 in [7], in experiment [8], in [9], in [10], in [19] and in experiment [11] was > 100 µM (inactive) each time. In addition, the GI50 in [12] was > 100 µM (inactive); in experiment [13] it was > 100 µM (inactive); in experiment [14], > 100 µM (inactive); in experiment [15] it was 77.3 µM (inactive); in experiment [16] it was 28.4 µM (inactive); in [17], > 100 µM (inactive). The GI50 in experiment [18] is > 100 µM (inactive).
As for `COc1c(O)cc(/C=C/c2cc(O)cc3c2[C@@]2(C(=O)O3)c3c(O)cc(O)cc3OC2c2cccc(O)c2)cc1O` (some centres undefined), the GI50 was 23.7 µM (inactive) in experiment [1]; 98.4 µM (inactive) in experiment [2]; 72.1 µM (inactive) in experiment [3]; 30.5 µM (inactive) in experiment [4]; > 100 µM (inactive) in [5]; > 100 µM (inactive) in [6]. In addition, the GI50 in experiment [7] is 81.7 µM (inactive); in experiment [8], 11.3 µM (inactive); in experiment [9], 26.4 µM (inactive); in experiment [10] it was 54 µM (inactive); in experiment [19], 19.6 µM (inactive); in [11] it was 62.4 µM (inactive). Moreover, the GI50 in experiment [13] is 35.2 µM (inactive); in experiment [14] it was 94 µM (inactive); in experiment [15], 32 µM (inactive); in experiment [20], 1.57 µM (inactive); in experiment [17], 95.9 µM (inactive); in experiment [18] it was 30.4 µM (inactive).
